Data: patent publication US20200030347A1, “ANTIMICROBIAL COMPOSITIONS” (Matoke Holdings Limited, priority 2016, published 2020)

Assays:
[1] = 20° C. and 1 atm; cited from earlier work
[2] = system: human nasal epithelial cell line; assay: Gene expression by quantitative real-time PCR in nasal epithelial cells; type: cell-based; conditions: 1 hour
Method: The fold change was calculated based on normalisation to the expression of the endogenous R-actin housekeeping gene. […] The dotted line for y=0 represents the untreated control group to which gene expression in the treatment groups were normalised and compared using an unpaired two tailed T test. *p≤0.05, ** […], *** p≤0.001, **** p≤0.0001; A human nasal epithelial cell line was used to investigate the immediate effect of SurgihoneyRO (also known as Surgihoney) on the integrity and function of the epithelium. In addition, a human mast cell line was used as a representative leukocyte to investigate immunological responses to SurgihoneyRO. Mast cells were selected because of their function as sentinel cells, being located just underneath the epithelium in tissues. Mast cells have close contact to the external environment, for example being found in the nasal mucosa, where they are ideally placed to participate in the early recognition of pathogens—by acting as immune effectors and modulatory cells with an essential role in linking innate and adaptive immunity in the host's defence against pathogens such as bacteria. […] In this case, we treated cells with an appropriate concentration range of pure hydrogen peroxide, from 0-400 uM.

[3] = system: human mast cell line (HMC-1); assay: Gene expression by quantitative real-time PCR in mast cells; type: cell-based; conditions: 1 hour
Method: Gene-expression profiles for Th17 related cytokines were analysed in HMC-1 treated with 10 g/L or 100 g/L of SurgihoneyRO for 5 minutes, 1 hour and 2 hours using quantitative real-time PCR. The fold change was calculated based on normalisation to the expression of the endogenous R-actin housekeeping gene. […] The dotted line for y=0 represents the untreated control group to which gene expression in the treatment groups were normalised and compared using an unpaired two tailed T test. *p≤0.05, ** […], *** p≤0.001, **** p≤0.0001;
A human nasal epithelial cell line was used to investigate the immediate effect of SurgihoneyRO (also known as Surgihoney) on the integrity and function of the epithelium. In addition, a human mast cell line was used as a representative leukocyte to investigate immunological responses to SurgihoneyRO. Mast cells were selected because of their function as sentinel cells, being located just underneath the epithelium in tissues.
We then studied the response of the mast cell line (HMC-1) to SurgihoneyRO treatment.
In this case, we treated cells with an appropriate concentration range of pure hydrogen peroxide, from 0-400 uM.

[4] = system: 48 h in vitro NTHi biofilms; assay: NTHi biofilm assay (cfu enumeration); type: cell-based, non-typeable Haemophilus influenza; conditions: 300/60 μg·ml; 2 hours
Method: Bacterial strains used in this study were isolated from nasopharyngeal swabs of children aged 4 years. NTHi was sub-cultured from frozen stocks onto Colombia agar with chocolated horse blood (Oxoid, UK) and incubated for 18 h at 37° C. and 5% CO2, following which colonies were resuspended in Brain Heart Infusion (BHI) broth supplemented with 10 μg/ml Hemin and 2 μg/ml NAD, and grown to mid-exponential phase for experiments. Pseudomonas aeruginosa PA01 and a clinical methicillin resistant Staphylococcus aureus isolate were subcultured onto Colombia blood agar plates (Oxoid, UK) and grown in non-supplemented BHI. […]
Mid-exponential planktonic cultures were used to inoculate individual wells of untreated 6-well polystyrene plates (˜1.0×10^8 planktonic bacteria per well; Corning Incorporated, USA). Cultures were incubated at 37° C. and 5% CO2 for 48 h, replacing spent media with fresh supplemented BHI (NTHi) at 24 h. Prior to treatment spent media was removed and biofilms washed twice with Hanks' balanced salt solution (HBSS; Gibco, UK). Biofilms were treated with SurgihoneyRO™ or Acacia (both prepared in HBSS) at final concentrations of 7 to 213 g/L. To assess the effect of pH biofilms were treated with HBSS adjusted to pH6.3 (the pH of 71 g/L SurgihoneyRO™ in HBSS). For adjuvant assays biofilms were treated with 300 μg/mL amoxicillin and 60 μg/mL clavulanic acid (Co-amoxiclav). […]

## O=C(CO)[C@@H](O)[C@H](O)[C@H](O)CO [Fructose]
[1]
  solubility: about 375 g/100 g water

## OO [hydrogen peroxide]
[2]; 40 μM
  IL22 expression, fold change: 0.90 fold
  IL23R expression, fold change: 0.45 fold
[2]; 200 μM
  IL22 expression, fold change: 1.42 fold
  IL23R expression, fold change: 1.20 fold
[2]; 400 μM
  GATA3 expression, fold increase: 0.92 fold
  IL10 expression, fold change: 4.63 fold
  IL22 expression, fold change: 4.55 fold
  IL23R expression, fold change: 1.87 fold
  MMP9 expression, fold change: 1.47 fold
  RORγC expression, mean increase: 14.57 fold
[3]; 40 μM
  IL22 expression, fold change: 0.60 fold
  IL23R expression, fold change: 0.47 fold
[3]; 200 μM
  IL22 expression, fold change: 1.25 fold
  IL23R expression, fold change: 0.58 fold
  MMP7 expression, fold increase: 3.07 fold
[3]; 400 μM
  IL22 expression, fold change: 1.81 fold
  IL23R expression, fold change: 1.05 fold
  MMP7 expression, fold increase: 3.31 fold
  RORγC expression, mean increase: 2.83 fold

## co-amoxiclav
[4]
  effect on biofilm viability: no effect
